# How the values were obtained:
# Assay type in all cases: in vivo
# [1] = Inhibition of tetrabenazine induced depression of exploratory behavior in mice; conditions: for Number Responded/Number Treated: intraperitoneally or orally, 1 h before tetrabenazine 30 mg/kg; for ED50: Mus musculus, calculated by method of Finney, dose column in mg/kg, read-out: ED50 (95% C.L.)
# Description: Varying doses of the test compounds are administered intraperitoneally or orally to 5 mice one hour before the administration of tetrabenazine hexamate at an intraperitoneal dose of 30 mg/kg which is known to depress markedly the exploratory behavior of normal mice. Thirty minutes later the mice are tested for their exploratoy behavior. Individual mice are placed in the center of a horizontal disc. Inhibition of the depression induced by tetrabenazine is considered present if the mice perform one or more of the following actions within 10 seconds after being placed on the disc:
# (1) Animals move to the edge of the disc and pear over the side.
# (2) Animals move 180° in place.
# (3) Animals display a head movement of 90° immediately followed by a head movement in the opposite direction of at least 45°.
# Administration of the test compounds to additional groups of 5 mice is repeated, the numbers of individual animals showing an anti-depressant response (normal exploratory behavior) is recorded and the results are analyzed by the following scheme (statistically standardized; significant P = less than 0.05).
# The results from several dose levels (acceptance in at least two sequential test procedures) are then used to establish the Range of Active Doses.
# [2] = Prevention of reserpine-induced hypothermia in rats; conditions: for ED50: Rattus norvegicus, oral, dose column in mg/kg, read-out: ED50 (95% C.L.)
# Description: Groups of 5 rats were treated orally with graded doses of the test compounds. One hour later the animals were treated with reserpine (solubilized in propylene glycol and citric acid) at a dose of 5 mg/kg intraperitoneally. Rectal temperatures were measured using a YSI Telethermometer. Temperatures were recorded just prior to treatment, one hour later just prior to reserpine administration and at hourly intervals following reserpine administration for 5 hours. […]
# [3] = Enhancement of yohimbine lethality in mice; conditions: 25 mg/kg intraperitoneal, yohimbine 34 mg/kg
# Description: The test compounds were administered intraperitoneally, at various dose levels, to groups of 10 mice. One hour later all mice received yohimbine at a dose (34 mg/kg) estimated to have a lethal effect in 4% of the mice. Deaths were recorded 18 to 24 hours later.
compound,measurement,setting,value
"CN(C)CCCN1c2ccccc2CCc2ccccc21 [Imipramine, reference compound]",Number Responded/Number Treated,[1]; 0.78 mg/kg,1/10
same,Number Responded/Number Treated,[1]; 1.56 mg/kg,2/10
same,Number Responded/Number Treated,[1]; 3.13 mg/kg,4/10
same,Number Responded/Number Treated,[1]; 6.25 mg/kg,7/10
same,Number Responded/Number Treated,[1]; 12.5 mg/kg,7/10
same,Number Responded/Number Treated,[1]; 25.0 mg/kg,9/10
same,ED50,[1],4.4 mg/kg
same,Percent of Animals Showing > Two Standard Deviations in Rectal Temperature Over Control Means,"[2]; 0.20 mg/kg oral, 2 hours after reserpine",0%
same,Percent of Animals Showing > Two Standard Deviations in Rectal Temperature Over Control Means,"[2]; 0.20 mg/kg oral, 3 hours after reserpine",0%
same,Percent of Animals Showing > Two Standard Deviations in Rectal Temperature Over Control Means,"[2]; 0.20 mg/kg oral, 4 hours after reserpine",0%
same,Percent of Animals Showing > Two Standard Deviations in Rectal Temperature Over Control Means,"[2]; 0.20 mg/kg oral, 5 hours after reserpine",0%
same,Percent of Animals Showing > Two Standard Deviations in Rectal Temperature Over Control Means,"[2]; 0.39 mg/kg oral, 2 hours after reserpine",0%
same,Percent of Animals Showing > Two Standard Deviations in Rectal Temperature Over Control Means,"[2]; 0.39 mg/kg oral, 3 hours after reserpine",10%
same,Percent of Animals Showing > Two Standard Deviations in Rectal Temperature Over Control Means,"[2]; 0.39 mg/kg oral, 4 hours after reserpine",0%
same,Percent of Animals Showing > Two Standard Deviations in Rectal Temperature Over Control Means,"[2]; 0.39 mg/kg oral, 5 hours after reserpine",0%
same,Percent of Animals Showing > Two Standard Deviations in Rectal Temperature Over Control Means,"[2]; 0.78 mg/kg oral, 2 hours after reserpine",21%
same,Percent of Animals Showing > Two Standard Deviations in Rectal Temperature Over Control Means,"[2]; 0.78 mg/kg oral, 3 hours after reserpine",0%
same,Percent of Animals Showing > Two Standard Deviations in Rectal Temperature Over Control Means,"[2]; 0.78 mg/kg oral, 4 hours after reserpine",0%
same,Percent of Animals Showing > Two Standard Deviations in Rectal Temperature Over Control Means,"[2]; 0.78 mg/kg oral, 5 hours after reserpine",7%
same,Percent of Animals Showing > Two Standard Deviations in Rectal Temperature Over Control Means,"[2]; 1.56 mg/kg oral, 2 hours after reserpine",40%
same,Percent of Animals Showing > Two Standard Deviations in Rectal Temperature Over Control Means,"[2]; 1.56 mg/kg oral, 3 hours after reserpine",20%
same,Percent of Animals Showing > Two Standard Deviations in Rectal Temperature Over Control Means,"[2]; 1.56 mg/kg oral, 4 hours after reserpine",20%
same,Percent of Animals Showing > Two Standard Deviations in Rectal Temperature Over Control Means,"[2]; 1.56 mg/kg oral, 5 hours after reserpine",40%
same,Percent of Animals Showing > Two Standard Deviations in Rectal Temperature Over Control Means,"[2]; 3.13 mg/kg oral, 2 hours after reserpine",100%
same,Percent of Animals Showing > Two Standard Deviations in Rectal Temperature Over Control Means,"[2]; 3.13 mg/kg oral, 3 hours after reserpine",90%
same,Percent of Animals Showing > Two Standard Deviations in Rectal Temperature Over Control Means,"[2]; 3.13 mg/kg oral, 4 hours after reserpine",80%
same,Percent of Animals Showing > Two Standard Deviations in Rectal Temperature Over Control Means,"[2]; 3.13 mg/kg oral, 5 hours after reserpine",100%
same,Percent of Animals Showing > Two Standard Deviations in Rectal Temperature Over Control Means,"[2]; 6.25 mg/kg oral, 2 hours after reserpine",100%
same,Percent of Animals Showing > Two Standard Deviations in Rectal Temperature Over Control Means,"[2]; 6.25 mg/kg oral, 3 hours after reserpine",100%
same,Percent of Animals Showing > Two Standard Deviations in Rectal Temperature Over Control Means,"[2]; 6.25 mg/kg oral, 4 hours after reserpine",100%
same,Percent of Animals Showing > Two Standard Deviations in Rectal Temperature Over Control Means,"[2]; 6.25 mg/kg oral, 5 hours after reserpine",100%
same,Percent of Animals Showing > Two Standard Deviations in Rectal Temperature Over Control Means,"[2]; 12.5 mg/kg oral, 2 hours after reserpine",100%
same,Percent of Animals Showing > Two Standard Deviations in Rectal Temperature Over Control Means,"[2]; 12.5 mg/kg oral, 3 hours after reserpine",80%
same,Percent of Animals Showing > Two Standard Deviations in Rectal Temperature Over Control Means,"[2]; 12.5 mg/kg oral, 4 hours after reserpine",100%
same,Percent of Animals Showing > Two Standard Deviations in Rectal Temperature Over Control Means,"[2]; 12.5 mg/kg oral, 5 hours after reserpine",100%
same,ED50,[2]; 2 hours after reserpine,1.2 mg/kg
same,ED50,[2]; 3 hours after reserpine,2.2 mg/kg
same,ED50,[2]; 4 hours after reserpine,2.2 mg/kg
same,ED50,[2]; 5 hours after reserpine,1.3 mg/kg
"CCN1c2ccccc2N=C(N2CCN(C)CC2)c2cscc21 [4-Ethyl-10-(4-methyl-1-piperazinyl)-4H-thieno[3,4-b][1,5]benzodiazepine]",Number Responded/Number Treated,[1]; 3.13 mg/kg,3/15
same,Number Responded/Number Treated,[1]; 6.25 mg/kg,10/30
same,Number Responded/Number Treated,[1]; 12.5 mg/kg,9/25
same,Number Responded/Number Treated,[1]; 25.0 mg/kg,9/20
same,ED50,[1],~37 mg/kg
same,Percent of Animals Showing > Two Standard Deviations in Rectal Temperature Over Control Means,"[2]; 5 mg/kg oral, 2 hours after reserpine",0%
same,Percent of Animals Showing > Two Standard Deviations in Rectal Temperature Over Control Means,"[2]; 5 mg/kg oral, 3 hours after reserpine",0%
same,Percent of Animals Showing > Two Standard Deviations in Rectal Temperature Over Control Means,"[2]; 5 mg/kg oral, 4 hours after reserpine",0%
same,Percent of Animals Showing > Two Standard Deviations in Rectal Temperature Over Control Means,"[2]; 5 mg/kg oral, 5 hours after reserpine",0%
same,Percent of Animals Showing > Two Standard Deviations in Rectal Temperature Over Control Means,"[2]; 10 mg/kg oral, 2 hours after reserpine",60%
same,Percent of Animals Showing > Two Standard Deviations in Rectal Temperature Over Control Means,"[2]; 10 mg/kg oral, 3 hours after reserpine",100%
same,Percent of Animals Showing > Two Standard Deviations in Rectal Temperature Over Control Means,"[2]; 10 mg/kg oral, 4 hours after reserpine",60%
same,Percent of Animals Showing > Two Standard Deviations in Rectal Temperature Over Control Means,"[2]; 10 mg/kg oral, 5 hours after reserpine",20%
same,Percent of Animals Showing > Two Standard Deviations in Rectal Temperature Over Control Means,"[2]; 20 mg/kg oral, 2 hours after reserpine",80%
same,Percent of Animals Showing > Two Standard Deviations in Rectal Temperature Over Control Means,"[2]; 20 mg/kg oral, 3 hours after reserpine",80%
same,Percent of Animals Showing > Two Standard Deviations in Rectal Temperature Over Control Means,"[2]; 20 mg/kg oral, 4 hours after reserpine",100%
same,Percent of Animals Showing > Two Standard Deviations in Rectal Temperature Over Control Means,"[2]; 20 mg/kg oral, 5 hours after reserpine",60%
same,ED50,[2]; 2 hours after reserpine,11.6 mg/kg
same,ED50,[2]; 3 hours after reserpine,8.7 mg/kg
same,ED50,[2]; 4 hours after reserpine,9.7 mg/kg
same,ED50,[2]; 5 hours after reserpine,16.9 mg/kg
same,Number Dead/Number Treated,[3]; 18 hours,7/10
same,Number Dead/Number Treated,[3]; 24 hours,8/10
"CN1c2ccccc2N=C(N2CCNCC2)c2cscc21 [4-Methyl-10-(1-piperazinyl)-4H-thieno[3,4-b][1,5]benzodiazepine]",Number Responded/Number Treated,[1]; 1.56 mg/kg,5/30
same,Number Responded/Number Treated,[1]; 3.13 mg/kg,10/30
same,Number Responded/Number Treated,[1]; 6.25 mg/kg,9/20
same,Number Responded/Number Treated,[1]; 12.5 mg/kg,11/20
same,Number Responded/Number Treated,[1]; 25.0 mg/kg,10/20
same,ED50,[1],13 mg/kg
